Source: patent publication US20210395239A1 (Hoffmann-La Roche Inc., priority 2018, published 2021)

Each molecule was assayed against T1, human TLR8 (Homo sapiens, UniProt Q9NR97) (assay: HEK293-Blue-hTLR-8 cells assay (SEAP reporter, R848 stimulation)). Conditions: HEK293-Blue-hTLR8 cells, R848, 20 hrs; read-out: HEK/hTLR8 IC50.
T1 construct: host or cells: HEK293 (HEK-Blue hTLR8)
T1 sequence (Q9NR97 27-1041): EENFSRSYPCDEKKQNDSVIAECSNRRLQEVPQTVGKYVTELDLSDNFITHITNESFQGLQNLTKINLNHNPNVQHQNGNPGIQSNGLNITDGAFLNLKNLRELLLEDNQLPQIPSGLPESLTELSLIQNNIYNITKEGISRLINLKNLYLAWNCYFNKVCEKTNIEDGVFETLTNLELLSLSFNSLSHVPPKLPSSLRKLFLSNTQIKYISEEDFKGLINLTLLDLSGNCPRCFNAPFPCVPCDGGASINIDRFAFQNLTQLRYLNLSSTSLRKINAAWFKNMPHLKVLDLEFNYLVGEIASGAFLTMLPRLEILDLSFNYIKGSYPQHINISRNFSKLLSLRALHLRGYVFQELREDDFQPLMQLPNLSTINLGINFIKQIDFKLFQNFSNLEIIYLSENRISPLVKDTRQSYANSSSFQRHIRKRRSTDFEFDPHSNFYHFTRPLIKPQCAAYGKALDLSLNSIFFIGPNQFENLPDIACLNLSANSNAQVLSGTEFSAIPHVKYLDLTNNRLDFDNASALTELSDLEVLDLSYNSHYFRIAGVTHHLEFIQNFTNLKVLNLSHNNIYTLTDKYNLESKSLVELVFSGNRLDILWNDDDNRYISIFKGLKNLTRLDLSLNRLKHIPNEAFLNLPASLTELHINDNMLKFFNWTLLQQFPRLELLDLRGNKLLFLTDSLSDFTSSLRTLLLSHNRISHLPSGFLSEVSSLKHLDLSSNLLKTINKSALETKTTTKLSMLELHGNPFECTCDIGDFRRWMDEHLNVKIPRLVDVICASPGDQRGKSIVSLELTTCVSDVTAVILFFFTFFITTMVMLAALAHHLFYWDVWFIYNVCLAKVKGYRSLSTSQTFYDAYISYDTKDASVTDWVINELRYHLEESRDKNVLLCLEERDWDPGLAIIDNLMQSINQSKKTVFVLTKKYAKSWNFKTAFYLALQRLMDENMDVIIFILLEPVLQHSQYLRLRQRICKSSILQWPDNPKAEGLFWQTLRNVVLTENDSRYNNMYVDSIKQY
Type: cell-based
Excerpt: HEK293-Blue-hTLR-8 Cells Assay:
A stable HEK293-Blue-hTLR-8 cell line was purchased from InvivoGen (Cat. #: hkb-ht1r8, San Diego, Calif., USA). These cells were originally designed for studying the stimulation of human TLR8 by monitoring the activation of NF-κB. A SEAP (secreted embryonic alkaline phosphatase) reporter gene was placed under the control of the IFN-β minimal promoter fused to five NF-κB and AP-1-binding sites. The SEAP was induced by activating NF-κB and AP-1 via stimulating HEK-Blue hTLR8 cells with TLR8 ligands. Therefore the reporter expression was declined by TLR8 antagonist under the stimulation of a ligand, such as R848, for incubation of 20 hrs. The cell culture supernatant SEAP reporter activity was determined using QUANTI-Blue™ kit (Cat. #: rep-qb1, Invivogen, San Diego, Ca, USA) at a wavelength of 640 nm, a detection medium that turns purple or blue in the presence of alkaline phosphatase.
HEK293-Blue-hTLR8 cells were incubated at a density of 250,000˜450,000 cells/mL in a volume of 170 μL in a 96-well plate in Dulbecco's Modified Eagle's medium (DMEM) containing 4.5 g/L glucose, 50 U/mL penicillin, […], […], 2 mM L-glutamine, 10% (v/v) heat-inactivated fetal bovine serum with addition of 20 μL test compound in a serial dilution in the presence of final DMSO at 1% and 10 μL of 60 uM R848 in above DMEM, perform incubation under 37° C. in a CO2 incubator for 20 hrs. Then 20 μL of the supernatant from each well was incubated with 180 μL Quanti-blue substrate solution at 37° C. for 2 hrs and the absorbance was read at 620˜655 nm using a spectrophotometer. The signaling pathway that TLR8 activation leads to downstream NF-κB activation has been widely accepted, and therefore similar reporter assay was modified for evaluating TLR8 antagonist.

| SMILES | IC50 [nM] |
| --- | --- |
| C[C@@H]1CN(c2ccc(C#N)c3ncccc23)C[C@H](CN2CCC(c3cccc(N4CCNCC4)c3)C2)O1 (stereo partly drawn) [Example 1, 5-[(2R,6S)-2-methyl-6-[[3-(3-piperazin-1-ylphenyl)pyrrolidin-1-yl]methyl]morpholin-4-yl]quinoline-8-carbonitrile] | 40 |
| C[C@@H]1CN(c2ccc(C#N)c3ncccc23)C[C@H](CN2CCC(c3cccc(C4CCNCC4)c3)CC2)O1 [Example 2, 5-[(2R,6S)-2-methyl-6-[[4-[3-(4-piperidyl)phenyl]-1-piperidyl]methyl]morpholin-4-yl]quinoline-8-carbonitrile] | 26 |
| C[C@@H]1CN(c2ccc(C#N)c3ncccc23)C[C@H](CN2CC(c3ccc(N4CCNCC4)cc3)C2)O1 [Example 3, 5-[(2R,6S)-2-methyl-6-[[3-(4-piperazin-1-ylphenyl)azetidin-1-yl]methyl]morpholin-4-yl]quinoline-8-carbonitrile] | 9 |
| C[C@@H]1CN(c2ccc(C#N)c3ncccc23)C[C@H](CN2CC(c3cccc(N4CCNCC4)c3)C2)O1 [Example 4, 5-[(2R,6S)-2-methyl-6-[[3-(3-piperazin-1-ylphenyl)azetidin-1-yl]methyl]morpholin-4-yl]quinoline-8-carbonitrile] | 17 |
| C[C@@H]1CN(c2ccc(C#N)c3ncccc23)C[C@H](CN2CCN(c3ccc(CN)cc3)CC2)O1 [Example 5, 5-[(2S,6R)-2-[[4-[4-(aminomethyl)phenyl]piperazin-1-yl]methyl]-6-methyl-morpholin-4-yl]quinoline-8-carbonitrile] | 33 |
| C[C@@H]1CN(c2ccc(C#N)c3ncccc23)C[C@H](CN2CCN(c3cnc(N4CCNCC4)cn3)CC2)O1 [Example 6, 5-[(2R,6S)-2-methyl-6-[[4-(5-piperazin-1-ylpyrazin-2-yl)piperazin-1-yl]methyl]morpholin-4-yl]quinoline-8-carbonitrile] | 7 |
| COc1cc(N2CCN(C[C@H]3CN(c4ccc(C#N)c5ncccc45)C[C@@H](C)O3)CC2)nc(N2CCNCC2)n1 [Example 91, 5-[(2S,6R)-2-[[4-(6-methoxy-2-piperazin-1-yl-pyrimidin-4-yl)piperazin-1-yl]methyl]-6-methyl-morpholin-4-yl]quinoline-8-carbonitrile] | 8 |
| C[C@@H]1CN(c2ccc(C#N)c3ncccc23)C[C@H](CN2CCN(c3ncc(F)c(N4CCNCC4)n3)CC2)O1 [Example 94, 5-[(2S,6R)-2-[[4-(5-fluoro-4-piperazin-1-yl-pyrimidin-2-yl)piperazin-1-yl]methyl]-6-methyl-morpholin-4-yl]quinoline-8-carbonitrile] | 6 |
| C[C@@H]1CN(c2ccc(C#N)c3ncccc23)C[C@H](CN2CCN(c3ccnc(N4C[C@@H](N)[C@H](F)C4)n3)CC2)O1 [Example 96, 5-[(2S,6R)-2-[[4-[2-[(3R,4R)-3-amino-4-fluoro-pyrrolidin-1-yl]pyrimidin-4-yl]piperazin-1-yl]methyl]-6-methyl-morpholin-4-yl]quinoline-8-carbonitrile] | 4 |
| C[C@@H]1CN(c2ccc(C#N)c3ncccc23)C[C@H](CN2CCN(c3ccnc(N4C[C@@H](N)[C@@H](F)C4)n3)CC2)O1 [Example 101, 5-[(2S,6R)-2-[[4-[2-[(3R,4S)-3-amino-4-fluoro-pyrrolidin-1-yl]pyrimidin-4-yl]piperazin-1-yl]methyl]-6-methyl-morpholin-4-yl]quinoline-8-carbonitrile] | 4 |

These reach a lower IC50. Values come first.

| IC50 [nM] | SMILES |
| --- | --- |
| 3 | COC1CN(c2nccc(N3CCN(C[C@H]4CN(c5ccc(C#N)c6ncccc56)C[C@@H](C)O4)CC3)n2)CC1N (stereo in doubt) [Example 93, 5-[(2S,6R)-2-[[4-[2-[(3R,4S)-3-amino-4-methoxy-pyrrolidin-1-yl]pyrimidin-4-yl]piperazin-1-yl]methyl]-6-methyl-morpholin-4-yl]quinoline-8-carbonitrile] |
| 3 | C[C@@H]1CN(c2ccc(C#N)c3ncccc23)C[C@H](CN2CCN(c3ccnc(N4C[C@@H](F)[C@@H](N)C4)n3)CC2)O1 [Example 95, 5-[(2S,6R)-2-[[4-[2-[(3S,4R)-3-amino-4-fluoro-pyrrolidin-1-yl]pyrimidin-4-yl]piperazin-1-yl]methyl]-6-methyl-morpholin-4-yl]quinoline-8-carbonitrile] |
| 2 | CO[C@@H]1CN(c2nccc(N3CCN(C[C@H]4CN(c5ccc(C#N)c6ncccc56)C[C@@H](C)O4)CC3)n2)C[C@@H]1N [Example 92, 5-[(2S,6R)-2-[[4-[2-[(3S,4R)-3-amino-4-methoxy-pyrrolidin-1-yl]pyrimidin-4-yl]piperazin-1-yl]methyl]-6-methyl-morpholin-4-yl]quinoline-8-carbonitrile] |
| 2 | Cc1cnc(N2CCN(C[C@H]3CN(c4ccc(C#N)c5ncccc45)C[C@@H](C)O3)CC2)nc1N1CCNCC1 [Example 102, 5-[(2R,6S)-2-methyl-6-[[4-(5-methyl-4-piperazin-1-yl-pyrimidin-2-yl)piperazin-1-yl]methyl]morpholin-4-yl]quinoline-8-carbonitrile] |
| 1 | CO[C@H]1CN(c2ccnc(N3CCN(C[C@H]4CN(c5ccc(C#N)c6ncccc56)C[C@@H](C)O4)CC3)n2)C[C@@H]1N [Example 97, 5-[(2S,6R)-2-[[4-[4-[(3S,4S)-3-amino-4-methoxy-pyrrolidin-1-yl]pyrimidin-2-yl]piperazin-1-yl]methyl]-6-methyl-morpholin-4-yl]quinoline-8-carbonitrile] |
| 1 | CO[C@@H]1CN(c2nccc(N3CCN(C[C@H]4CN(c5ccc(C#N)c6nccnc56)C[C@@H](C)O4)CC3)n2)C[C@H]1N [Example 98, 8-[(2S,6R)-2-[[4-[2-[(3R,4R)-3-amino-4-methoxy-pyrrolidin-1-yl]pyrimidin-4-yl]piperazin-1-yl]methyl]-6-methyl-morpholin-4-yl]quinoxaline-5-carbonitrile] |
| 1 | CO[C@H]1CN(c2nccc(N3CCN(C[C@H]4CN(c5ccc(C#N)c6nccnc56)C[C@@H](C)O4)CC3)n2)C[C@@H]1N [Example 99, 8-[(2S,6R)-2-[[4-[2-[(3S,4S)-3-amino-4-methoxy-pyrrolidin-1-yl]pyrimidin-4-yl]piperazin-1-yl]methyl]-6-methyl-morpholin-4-yl]quinoxaline-5-carbonitrile] |
| 1 | C[C@@H]1CN(c2ccc(C#N)c3ncccc23)C[C@H](CN2CCN(c3ccnc(N4C[C@H]5NCCO[C@@H]5C4)n3)CC2)O1 [Example 103, 5-[(2S,6R)-2-[[4-[2-[(4aR,7aR)-3,4,4a,5,7,7a-hexahydro-2H-pyrrolo[3,4-b][1,4]oxazin-6-yl]pyrimidin-4-yl]piperazin-1-yl]methyl]-6-methyl-morpholin-4-yl]quinoline-8-carbonitrile] |
| 1 | CO[C@H]1CN(c2cc(C)nc(N3CCN(C[C@H]4CN(c5ccc(C#N)c6nccnc56)C[C@@H](C)O4)CC3)n2)C[C@@H]1N [Example 104, 8-[(2S,6R)-2-[[4-[4-[(3S,4S)-3-amino-4-methoxy-pyrrolidin-1-yl]-6-methyl-pyrimidin-2-yl]piperazin-1-yl]methyl]-6-methyl-morpholin-4-yl]quinoxaline-5-carbonitrile] |
